Experiment [1] has as its target T1, Na^+,K^+ -ATPase (Homo sapiens, UniProt P05023).
T1 construct: Na^+,K^+ -ATPase receptor purified according to Jorghensen; from tissue
Kind of experiment: displacement of the specific 3H-ouabain binding from the purified Na+,K+-ATPase receptor. The text has this:
(§1) To test the affinity for the receptor site of the Na^+,K^+ -ATPase and the agonist or antagonist activity on the enzyme, the following tests were used:
a) displacement of the specific ^3 H-ouabain binding from the Na^+,K^+ -ATPase receptor purified according to Jorghensen (Jorghensen P., BBA, 1974, 356, 36) and Erdmann (Erdmann E. et al., Arzneim. Forsh., 1984, 34, 1314);

Experiment [2] concerns the target T1, Na^+,K^+ -ATPase. Nature of the experiment: inhibition of the activity of the purified Na+,K+-ATPase (% hydrolysis of 32P-ATP). It counts as biochemical.
From the text: as §1
b) inhibition of the activity of the purified Na^+,K^+ -ATPase measured as % of hydrolysis of ^32 P-ATP in presence and in absence of the tested compound (Doucet A. et al., Am. J. Physiol., 1986, 251, F851)

Experiment [3] has as its system spontaneous hypertensive rats (MHS). Kind of experiment: effect of 5 week-treatment on the development of hypertension; SBP and HR by tail cuff method. Type of experiment: in vivo, rat (MHS). Conditions: 20 mg/Kg/os daily in Methocel 0.5%, 5 weeks; for SBP: n=7, controls 172 +/- 5,0; for HR: n=7, controls 380 +/- 6,3. On the procedure: Systolic blood pressure (SBP) and heart rate (HR) were measured, by the tail cuff method, in young prehypertensive male rats (MHS or SHR) strains before the development of hypertension (4 weeks of age) for recording the basal values of SBP. Groups of 7 rats were formed and subdivided in control and treated groups. The compound, suspended in Methocel 0.5% (w/v), was orally given daily for at least 5 weeks to the treated groups. The control group received only Methocel.
SBP and HR were measured weekly 6 and 24 hrs after treatment. After 5 weeks of treatment, when hypertension was fully developed in the control group (9 weeks of age), washout was started for at least one week, to verify whether the treatment maintained blood pressure low or reestablished the basal values.

Setting [4] is: 3H-ouabain, purified Na+,K+-ATPase, read-out: Binding 3H-Ouab. Displacement log IC50 (converted).
[5] abbreviates: 32P-ATP hydrolysis, purified Na+,K+-ATPase, read-out: Inhibitory Activity log IC50 (converted).

Structures can show the parent of a compound that is named as a salt.

A word on the IC50: it is the concentration that inhibits the measured activity by half. Turning to `CN(C)CCO/N=C/[C@H]1CC[C@]2(O)C[C@@H](c3ccc(CO)cc3)CC[C@]12C` [I-bc, (1S,3aS,5S,7aR)-1-[(E)-2-Dimethylaminoethoxyimino]methyl-5-(4-hydroxymethylphenyl)-7a-methylperhydroinden-3a-ol], the IC50 at Na^+,K^+ -ATPase [1] (setting [4]) is 5.01 µM. Moreover, the half-inhibitory concentration (IC50) at Na^+,K^+ -ATPase [2] (setting [5]) was 50.1 µM. Further, in experiment [3], the SBP was 160 +/- 7,8 mm Hg and the HR is reported as 377 +/- 10,5 bEATS/min.
As for `CN(C)CCONC[C@H]1CC[C@]2(O)C[C@@H](c3ccccc3)CC[C@]12C` [I-df, (1S,3aS,5S,7aR)-1-(2-Dimethylaminoethoxyamino)methyl-5-phenyl-7a-methylperhydroinden-3a-ol oxalate], the half-inhibitory concentration (IC50) on Na^+,K^+ -ATPase [1] was 6.31 µM; against Na^+,K^+ -ATPase [2] it was 50.1 µM.
With `CN(C)CCO/N=C/[C@H]1CC[C@]2(O)C[C@@H](c3ccc(O)cc3)CC[C@]12C` [I-ax, (1S,3aS,5S,7aR)-1-[(E)-2-Dimethylaminoethoxyimino]methyl-5-(4-hydroxyphenyl)-7a-methylperhydroinden-3a-ol], the 50% inhibitory concentration (IC50) was 1.58 µM at Na^+,K^+ -ATPase [1] (setting [4]) and 39.8 µM at Na^+,K^+ -ATPase [2] (setting [5]). In addition, in experiment [3], the SBP is 156 +/- 4,6 mm Hg. For the same compound, in experiment [3], the HR is listed as 383 +/- 11,4 bEATS/min.
Take `Cc1ccc([C@H]2CC[C@]3(C)[C@@H](/C=N/OCCN)CC[C@]3(O)C2)cc1` [I-bg, (1S,3aS,5S,7aR)-1-[(E)-2-Aminoethoxyimino]methyl-5-(4-methylphenyl)-7a-methylperhydroinden-3a-ol oxalate]: the concentration for half-maximal inhibition (IC50) on Na^+,K^+ -ATPase [1] was 3.98 µM; on Na^+,K^+ -ATPase [2], 31.6 µM.
With `CN(C)CCONC[C@H]1CC[C@]2(O)C[C@@H](c3cccc(O)c3)CC[C@]12C` [I-di, (1S,3aS,5S,7aR)-1-(2-Dimethylaminoethoxyamino)methyl-5-(3-hydroxyphenyl)-7a-methylperhydroinden-3a-ol oxalate], the IC50 at Na^+,K^+ -ATPase [1] was 7.94 µM; on Na^+,K^+ -ATPase [2], 50.1 µM.
Take `CN(C)CCO/N=C/[C@H]1CC[C@]2(O)C/C(=C/CCO)CC[C@]12C` [I-by, (1S,3aS,7aR)-1-[(E)-2-Dimethylaminoethoxyimino]methyl-5-[(E)-3-hydroxypropyliden]-7a-methylperhydroinden-3a-ol]: the concentration for half-maximal inhibition (IC50) was 20 µM at Na^+,K^+ -ATPase [1] (setting [4]) and 63.1 µM on Na^+,K^+ -ATPase [2] (setting [5]).
As for `CN(C)CCO/N=C/[C@H]1CC[C@]2(O)C[C@@H](c3cccc(O)c3)CC[C@]12C` [I-au, (1S,3aS,5S,7aR)-1-[(E)-2-Dimethylaminoethoxyimino]methyl-5-(3-hydroxyphenyl)-7a-methylperhydroinden-3a-ol], the 50% inhibitory concentration (IC50) on Na^+,K^+ -ATPase [1] (setting [4]) is 6.31 µM; at Na^+,K^+ -ATPase [2] (setting [5]) it was 50.1 µM.
Taken in the same sequence, the figures for `C[C@]12CC[C@H](c3ccc(CO)cc3)C[C@@]1(O)CC[C@@H]2/C=N/OCCN` [I-bb, (1S,3aS,5S,7aR)-1-[(E)-2-Aminoethoxyimino]methyl-5-(4-hydroxymethylphenyl)-7a-methylperhydroinden-3a-ol] were 1.58 µM and 25.1 µM.
Take `CN(C)CCO/N=C/[C@H]1CC[C@]2(O)C[C@@H](c3ccccc3)CC[C@]12C` [I-ap, (1S,3aS,5S,7aR)-1-[(E)-2-Dimethylaminoethoxyimino]methyl-5-phenyl-7a-methylperhydroinden-3a-ol]: the half-maximal inhibitory concentration (IC50) at Na^+,K^+ -ATPase [1] (setting [4]) was 2 µM; on Na^+,K^+ -ATPase [2] (setting [5]) it was 39.8 µM. Besides, in experiment [3], the SBP is 155 +/- 4,3 mm Hg. The HR in experiment [3] was 370 +/- 10,5 bEATS/min.
For `Cc1ccc([C@H]2CC[C@]3(C)[C@@H](/C=N/OCCN(C)C)CC[C@]3(O)C2)cc1` [I-bh, (1S,3aS,5S,7aR)-1-[(E)-2-Dimethylaminoethoxyimino]methyl-5-(4-methylphenyl)-7a-methylperhydroinden-3a-ol], the IC50 is 6.31 µM on Na^+,K^+ -ATPase [1] (setting [4]) and 50.1 µM at Na^+,K^+ -ATPase [2] (setting [5]).
Taken in the same sequence, the figures for `CN(C)CCO/N=C/[C@H]1CC[C@]2(O)C/C(=C\CCO)CC[C@]12C` [I-bx, (1S,3aS,7aR)-1-[(E)-2-Dimethylaminoethoxyimino]methyl-5-[(Z)-3-hydroxypropyliden]-7a-methylperhydroinden-3a-ol] were 12.6 µM and 63.1 µM.

The record behind these values is patent US5705531A, “1,5-disubstituted 7A-methylperhydroinden-3A-ol derivatives, useful in treating cardiovascular disorders, processes for their preparation and pharmaceutical compositions containing the same” (Sigma-Tau Industrie Farmaceutiche Riunite S.p.A., priority 1994, dated 1998).
